Reference: patent publication US8367873B2, “Phenyl-substituted bicyclooctane-1,3-dione derivatives” (Bayer Cropscience AG, priority 2008, dated 2013)

How the values were obtained:
Type in all cases: in vivo
[1] = tested on: monocotylidonous and dicotylidonous weed and crop plants; assay: Herbicidal pre-emergence action (other test plants); details: pre-emergence method, 80 g/ha, greenhouse, visual assessment vs untreated controls
Method in brief: (§1)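 Seeds sown in sandy loam and covered; WP-formulated compounds applied to the soil surface as aqueous suspension at 600 l/ha with 0.2% wetting agent, at varying rates. Greenhouse-grown; emergence damage scored visually after three weeks versus untreated controls (100% = plants dead, 0% = like control).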

[2] = tested on: monocotylidonous and dicotylidonous weed and crop plants; assay: Herbicidal post-emergence action (other test plants); details: post-emergence method; for herbicidal effect against AVEFA (Avena fatua): 80 g/ha
Method in brief: (§2)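 Visual % herbicidal effect vs untreated controls (100% = plants dead, 0% = as control), ~3 wk after spraying. Plants sown in sandy loam, greenhouse-grown, treated at one-leaf stage (2–3 wk post-sowing). WP formulations, 600 l/ha water + 0.2% wetting agent, various doses.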

[3] = tested on: Lolium multiflorum; assay: Herbicidal post-emergence action; details: post-emergence method; for herbicidal effect against LOLMU (Lolium multiflorum): 80 g/ha
Method in brief: as §2

[4] = tested on: Setaria viridis; assay: Herbicidal post-emergence action; details: post-emergence method; for herbicidal effect against SETVI (Setaria viridis): 80 g/ha
Method in brief: as §2

[5] = tested on: Echinocloa crus-galli; assay: Herbicidal post-emergence action; details: post-emergence method; for herbicidal effect against ECHCG (Echinochloa crus-galli): 80 g/ha
Method in brief: as §2

[6] = tested on: Alopecurus myosuroides; assay: Herbicidal post-emergence action; details: post-emergence method; for herbicidal effect against ALOMY (Alopecurus myosuroides): 80 g/ha
Method in brief: as §2

[7] = tested on: Lolium multiflorum; assay: Herbicidal pre-emergence action; details: pre-emergence method, 80 g/ha, greenhouse, visual assessment vs untreated controls
Method in brief: as §1

[8] = tested on: Setaria viridis; assay: Herbicidal pre-emergence action; details: pre-emergence method, 80 g/ha, greenhouse, visual assessment vs untreated controls
Method in brief: as §1

[9] = tested on: Echinocloa crus-galli; assay: Herbicidal pre-emergence action; details: pre-emergence method, 80 g/ha, greenhouse, visual assessment vs untreated controls
Method in brief: as §1

[10] = tested on: Alopecurus myosuroides; assay: Herbicidal pre-emergence action; details: pre-emergence method, 80 g/ha, greenhouse, visual assessment vs untreated controls
Method in brief: as §1

| SMILES | herbicidal effect AVEFA [1] [%] | herbicidal effect against AVEFA (Avena fatua) [2] [%] | herbicidal effect against LOLMU (Lolium multiflorum) [3] [%] | herbicidal effect against SETVI (Setaria viridis) [4] [%] | herbicidal effect against ECHCG (Echinochloa crus-galli) [5] [%] | herbicidal effect against ALOMY (Alopecurus myosuroides) [6] [%] | herbicidal effect LOLMU [7] [%] | herbicidal effect SETVI [8] [%] | herbicidal effect ECHCG [9] [%] | herbicidal effect ALOMY [10] [%] | pest or weed control at 80 g/ha ([2]; 504 h, Avena fatua, read-out: herbicidal effect against AVEFA (Avena fatua)) [%] | pest or weed control at 80 g/ha ([3]; Lolium multiflorum, 504 h, read-out: herbicidal effect against LOLMU (Lolium multiflorum)) [%] | pest or weed control at 80 g/ha ([4]; Setaria viridis, 504 h, read-out: herbicidal effect against SETVI (Setaria viridis)) [%] | pest or weed control at 80 g/ha ([5]; Echinochloa crus-galli, 504 h, read-out: herbicidal effect against ECHCG (Echinochloa crus-galli)) [%] | pest or weed control at 80 g/ha ([6]; Alopecurus myosuroides, 504 h, read-out: herbicidal effect against ALOMY (Alopecurus myosuroides)) [%] |
| --- | --- | --- | --- | --- | --- | --- | --- | --- | --- | --- | --- | --- | --- | --- | --- |
| CCc1cc(C)cc(CC)c1C1=C(O)[C@H]2CC3(C[C@H]2C1=O)OCC(C)(C)CO3 (relative stereo) [I-a-9] | 70 | 60 | 90 | 90 | 100 | 60 | 100 | 90 | 100 | 90 |  |  |  |  |  |
| C#CCON=C1CC2C(=O)C(c3c(CC)cc(C)cc3CC)=C(OC(=O)OCC)C2C1 (stereo not shown) [I-c-41] | 40 | 80 | 100 | 20 | 100 | 100 | 100 | 40 | 60 | 90 |  |  |  |  |  |
| CCc1cc(C)cc(CC)c1C1=C(O)[C@H]2CC3(C[C@H]2C1=O)OC(C)(C)C(C)(C)O3 (relative stereo) [I-a-19] | 20 | 0 | 100 | 50 | 90 | 80 | 100 | 20 | 0 | 90 |  |  |  |  |  |
| CCOC(=O)OC1=C(c2c(C)cc(C)cc2OC)C(=O)C2CC3(CC12)OCCCO3 (racemic) [I-c-63] | 70 | 100 | 100 | 100 | 100 | 100 | 100 | 50 | 50 | 80 |  |  |  |  |  |
| CCc1cc(C)cc(C)c1C1=C(OC(=O)C(C)(C)C)C2CC3(COC(C)(C)O3)CC2C1=O (stereo not shown) [I-b-70] | 80 | 0 | 100 | 40 | 100 | 70 | 100 | 90 | 100 | 100 |  |  |  |  |  |
| CCc1cc(C)cc(CC)c1C1=C(OC(=O)OC)C2CC3(CC2C1=O)OCCCS3 (mixture of isomers) [I-c-32] | 70 | 90 | 90 | 80 | 90 | 80 | 100 | 70 | 100 | 80 |  |  |  |  |  |
| COc1cc(C)cc(C)c1C1=C([O-])C2CC3(CC2C1=O)OCCO3.[Na+] (stereo not shown) [I-f-6] | 90 | 80 | 100 | 100 | 100 | 100 | 90 | 70 | 70 | 60 |  |  |  |  |  |
| CCc1cc(C)cc(CC)c1C1=C(OC(=O)C(C)(C)CC)C2CC3(CC2C1=O)OCCCO3 (stereo not shown) [I-b-30] | 70 | 100 | 100 | 90 | 100 | 20 | 100 | 90 | 100 | 100 |  |  |  |  |  |
| CCc1cc(C)cc(C)c1C1=C(OC(=O)OC)C2CC3(COC(C)(C)O3)CC2C1=O (mixture of isomers) [I-c-79] | 80 | 70 | 100 | 90 | 100 | 100 | 100 | 80 | 100 | 90 |  |  |  |  |  |
| C=C1C[C@@H]2C(O)=C(c3c(CC)cc(C)cc3CC)C(=O)[C@@H]2C1 (stereo in doubt) [I-a-5, 2-(2,6-diethyl-4-methylphenyl)-3-hydroxy-5-methylidene-4,5,6,6a-tetrahydropentalen-1(3 aH)-one] | 60 |  |  |  |  |  | 90 | 70 | 80 | 60 | 50 | 90 | 100 | 100 | 60 |
| C=C1CC2C(=O)C(c3c(CC)cc(C)cc3CC)=C([O-])C2C1.[Na+] (stereo not shown) [I-f-21] | 70 | 80 | 100 | 100 | 100 | 80 | 100 | 90 | 100 | 90 |  |  |  |  |  |
| COc1cc(C)cc(C)c1C1=C(O)C2CC3(CC2C1=O)OCC=CCO3 (stereo not shown) [I-a-49] | 90 | 100 | 100 | 100 | 100 | 100 | 100 | 90 | 100 | 100 |  |  |  |  |  |
| Cc1cc(C)c(C2=C([O-])C3CC4(CC3C2=O)OCC=CCO4)c(C)c1.[Na+] (stereo not shown) [I-f-8] | 40 | 90 | 100 | 100 | 100 | 100 | 100 | 70 | 0 | 30 |  |  |  |  |  |
